Experimental data as given in patent EP3046573B1, “AMYLIN ANALOGUES” (Zealand Pharma A/S, priority 2013, dated 2015).
Like-named read-outs stand apart in the source and are kept apart here. Numbered stars: 1 amine (or outer) side, 2 acyl side, 3 side chain; on linkers, the order of the positions; unused ones are H or OH. Bridge positions count the residues as written; N and C are the ends. Square brackets hold non-standard residues; d marks the D form. Peptide text beside a SMILES is read from it. * marks the point of attachment. C20 diacid = O=C(O)CCCCCCCCCCCCCCCCCCC(=O)*; γGlu = O=C(O)[C@H](CCC(=O)[*:2])N[*:1]; NMeI = CC[C@H](C)[C@H](NC)C(=O)O; Sar = CNCC(=O)O

How the values were obtained:
[1] = biological target: T1, human calcitonin receptor (hCTR2) (Homo sapiens, UniProt P30988); assay: hCTR2 assay: induction of cAMP (AlphaScreen cAMP Assay kit) in COS7 cells expressing hCTR2; format: cell-based; conditions: cAMP induction in COS7 cells expressing hCTR2; average of a minimum of 3 determinations; read-out: hCTR2 EC50
T1 construct: expressed in transfected cells
T1 sequence (P30988 25-474): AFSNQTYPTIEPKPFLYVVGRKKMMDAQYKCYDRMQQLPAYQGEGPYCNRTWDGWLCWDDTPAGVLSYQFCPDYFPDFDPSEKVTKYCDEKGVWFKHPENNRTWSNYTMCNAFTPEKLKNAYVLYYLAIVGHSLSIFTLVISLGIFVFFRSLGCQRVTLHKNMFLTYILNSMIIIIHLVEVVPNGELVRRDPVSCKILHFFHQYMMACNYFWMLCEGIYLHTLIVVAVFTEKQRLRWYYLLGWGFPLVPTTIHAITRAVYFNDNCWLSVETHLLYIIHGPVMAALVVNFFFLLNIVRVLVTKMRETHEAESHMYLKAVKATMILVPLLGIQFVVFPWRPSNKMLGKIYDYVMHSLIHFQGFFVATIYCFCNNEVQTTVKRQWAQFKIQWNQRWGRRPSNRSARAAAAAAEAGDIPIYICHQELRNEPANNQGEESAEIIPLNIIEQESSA
Method in brief: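 cAMP induction was measured by AlphaScreen in COS7 cells stably expressing hCTR2 without RAMPs, after 15 min at 37° C with increasing peptide concentrations, 100 µM IBMX and 0.1% casein (Tyrode, pH 7.4). A 4-parameter logistic fit gave EC50 and % efficacy versus pramlintide.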

[2] = Solubility assessment (turbidity absorbance at 325 nm); format: physicochemical; conditions: stock 2 mg/ml diluted 1:1, ambient temperature (typically 25°C), n=1; for Solubility, Acetate buffer pH 4: 100 mM acetate buffer pH 4.0; for Solubility, Acetate buffer pH 5: 100 mM acetate buffer pH 5.0; for Solubility, Histidine buffer pH 6: 100 mM histidine buffer pH 6.0; for Solubility, Histidine buffer pH 7: 100 mM histidine buffer pH 7.0; for Solubility, Phosphate buffer pH 6: 100 mM phosphate buffer pH 6.0; for Solubility, Phosphate buffer pH 7: 100 mM phosphate buffer pH 7.0; for Solubility, Phosphate buffer pH 7.5: 100 mM phosphate buffer pH7.5
Method in brief: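 Turbidimetric screen across pH 4.0–7.5 in 100 mM acetate, histidine and phosphate buffers. A 2 mg/ml peptide stock (pH 2.5) was diluted 1:1 into each, then A325 measured at ambient temperature; values ≤ 0.02 AU denoted solubility of 1 mg/ml or more.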

[3] = biological target: T2, human amylin receptor 3 (hAMYR3) consisting of hCTR2 co-expressed with human Receptor Activity Modifying Protein 3 (hRAMP3) (Homo sapiens, UniProt O60896+P30988); assay: hAMYR3 assay: induction of cAMP (AlphaScreen cAMP Assay kit) in COS7 cells expressing hAMYR3; format: cell-based
T2 construct: expressed in transfected cells
T2 sequence (P30988 25-474): T1 sequence (P30988 25-474)
T2 sequence (O60896 24-148 partner): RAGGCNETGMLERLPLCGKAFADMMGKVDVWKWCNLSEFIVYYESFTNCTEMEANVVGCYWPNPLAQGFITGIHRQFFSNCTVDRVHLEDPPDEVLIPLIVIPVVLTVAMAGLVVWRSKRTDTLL
Method in brief: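 cAMP accumulation read by AlphaScreen in lysates of RAMP-naive COS7 cells stably transfected with hCTR2 plus hRAMP3. Cells exposed to peptide dilutions for 15 min, 37° C, with 100 µM IBMX; 4PL fitting gave EC50 and efficacy relative to pramlintide.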

[4] = cAMP induction in COS7 cells expressing hAMYR3, average of a minimum of 3 determinations, read-out: hAMY R3 EC50

SMILES | EC50 [1] [nM] | Solubility, Acetate buffer pH 4 [2] | Solubility, Acetate buffer pH 5 [2] | Solubility, Histidine buffer pH 6 [2] | Solubility, Histidine buffer pH 7 [2] | Solubility, Phosphate buffer pH 6 [2] | Solubility, Phosphate buffer pH 7 [2] | Solubility, Phosphate buffer pH 7.5 [2] | EC50 [3, 4] [nM] | EC50 [3] [nM]
CC[C@H](C)[C@@H](C(=O)N[C@@H](CC(C)C)C(=O)N[C@@H](CO)C(=O)N[C@@H](CO)C(=O)N[C@H](C(=O)N[C@@H](CCC(=O)O)C(=O)N[C@H](C(=O)NCC(=O)N[C@@H](CO)C(=O)N[C@@H](CCC(=O)O)C(=O)N[C@H](C(=O)N1CCC[C@H]1C(N)=O)[C@@H](C)O)C(C)C)[C@@H](C)O)N(C)C(=O)[C@H](C)NC(=O)CN(C)C(=O)[C@H](Cc1ccccc1)NC(=O)[C@H](CO)NC(=O)[C@H](CO)NC(=O)[C@H](CO)NC(=O)[C@H](CO)NC(=O)[C@H](CCCNC(=N)N)NC(=O)[C@H](Cc1c[nH]cn1)NC(=O)[C@H](CC(C)C)NC(=O)[C@H](Cc1ccccc1)NC(=O)[C@H](CCC(=O)O)NC(=O)[C@H](C)NC(=O)[C@H](CC(C)C)NC(=O)[C@H](CCCNC(=N)N)NC(=O)[C@@H]1CCCN1C(=O)[C@@H](NC(=O)[C@H](C)NC(=O)[C@@H]1CSSC[C@H](NC(=O)[C@H](CCCNC(=N)N)NC(=O)CC[C@H](NC(=O)CCCCCCCCCCCCCCCCCCC(=O)O)C(=O)O)C(=O)N2CCC[C@H]2C(=O)N[C@@H]([C@@H](C)O)C(=O)N[C@@H](C)C(=O)N[C@@H]([C@@H](C)O)C(=O)N1)[C@@H](C)O [Compound 143, [19CD]-isoGlu-RC()PTATC()ATPRLAEFLHRSSSSF-Gly(Me)-A-Ile(Me)-LSSTEVGSETP-NH2] ({C20 diacid-γGlu}-RCPTATCATPRLAEFLHRSSSSF[Sar]A[NMeI]LSSTEVGSETP-NH2; disulfide 2-7) | 0.26 | SS (SS indicates solubility ≥ 1mg/ml) | SS (SS indicates solubility ≥ 1mg/ml) | SS (SS indicates solubility ≥ 1mg/ml) | SS (SS indicates solubility ≥ 1mg/ml) | SS (SS indicates solubility ≥ 1mg/ml) | SS (SS indicates solubility ≥ 1mg/ml) | SS (SS indicates solubility ≥ 1mg/ml) | 0.44 | –
CC[C@H](C)[C@@H](C(=O)N[C@@H](CC(C)C)C(=O)N[C@@H](CO)C(=O)N[C@@H](CO)C(=O)N[C@H](C(=O)N[C@@H](CCC(=O)O)C(=O)N[C@H](C(=O)NCC(=O)N[C@@H](CO)C(=O)N[C@@H](CCC(=O)O)C(=O)N[C@H](C(=O)N1CCC[C@H]1C(N)=O)[C@@H](C)O)C(C)C)[C@@H](C)O)N(C)C(=O)[C@H](C)NC(=O)CN(C)C(=O)[C@H](Cc1ccccc1)NC(=O)[C@H](CO)NC(=O)[C@H](CO)NC(=O)[C@H](CO)NC(=O)[C@H](CO)NC(=O)[C@H](CCCNC(=N)N)NC(=O)[C@H](Cc1c[nH]cn1)NC(=O)[C@H](CC(C)C)NC(=O)[C@H](Cc1ccccc1)NC(=O)[C@H](CCC(=O)O)NC(=O)[C@H](C)NC(=O)[C@H](CC(C)C)NC(=O)[C@H](CCCNC(=N)N)NC(=O)[C@H](C)NC(=O)[C@@H](NC(=O)[C@H](C)NC(=O)[C@@H]1CSSC[C@H](NC(=O)[C@H](CCCNC(=N)N)NC(=O)CC[C@H](NC(=O)CCCCCCCCCCCCCCCCCCC(=O)O)C(=O)O)C(=O)N[C@@H](CO)C(=O)N[C@@H]([C@@H](C)O)C(=O)N[C@@H](C)C(=O)N[C@@H]([C@@H](C)O)C(=O)N1)[C@@H](C)O [Compound 144, [19CD]-isoGlu-RC()STATC()ATARLAEFLHRSSSSF-Gly(Me)-A-Ile(Me)-LSSTEVGSETP-NH2] ({C20 diacid-γGlu}-RCSTATCATARLAEFLHRSSSSF[Sar]A[NMeI]LSSTEVGSETP-NH2; disulfide 2-7) | 0.11 | SS (SS indicates solubility ≥ 1mg/ml) | SS (SS indicates solubility ≥ 1mg/ml) | SS (SS indicates solubility ≥ 1mg/ml) | SS (SS indicates solubility ≥ 1mg/ml) | SS (SS indicates solubility ≥ 1mg/ml) | SS (SS indicates solubility ≥ 1mg/ml) | SS (SS indicates solubility ≥ 1mg/ml) | 0.24 | –
CC[C@H](C)[C@@H](C(=O)N[C@@H](CC(C)C)C(=O)N[C@@H](CO)C(=O)N[C@@H](CO)C(=O)N[C@H](C(=O)N[C@@H](CCC(=O)O)C(=O)N[C@H](C(=O)NCC(=O)N[C@@H](CO)C(=O)N[C@@H](CCC(=O)O)C(=O)N[C@H](C(=O)N1CCC[C@H]1C(N)=O)[C@@H](C)O)C(C)C)[C@@H](C)O)N(C)C(=O)[C@H](C)NC(=O)CN(C)C(=O)[C@H](Cc1ccccc1)NC(=O)[C@H](CO)NC(=O)[C@H](CO)NC(=O)[C@H](CO)NC(=O)[C@H](CO)NC(=O)[C@H](CCCNC(=N)N)NC(=O)[C@H](Cc1c[nH]cn1)NC(=O)[C@H](CC(C)C)NC(=O)[C@H](Cc1ccccc1)NC(=O)[C@H](CCC(=O)O)NC(=O)[C@H](C)NC(=O)[C@H](CC(C)C)NC(=O)[C@H](CCCNC(=N)N)NC(=O)[C@H](C)NC(=O)[C@@H](NC(=O)[C@H](C)NC(=O)[C@@H]1CSSC[C@H](NC(=O)[C@H](CCCNC(=N)N)NC(=O)CC[C@H](NC(=O)CCCCCCCCCCCCCCCCCCC(=O)O)C(=O)O)C(=O)N[C@@H](CC(=O)O)C(=O)N[C@@H]([C@@H](C)O)C(=O)N[C@@H](C)C(=O)N[C@@H]([C@@H](C)O)C(=O)N1)[C@@H](C)O [Compound 145, [19CD]-isoGlu-RC()DTATC()ATARLAEFLHRSSSSF-Gly(Me)-A-Ile(Me)-LSSTEVGSETP-NH2] ({C20 diacid-γGlu}-RCDTATCATARLAEFLHRSSSSF[Sar]A[NMeI]LSSTEVGSETP-NH2; disulfide 2-7) | 0.092 | SS (SS indicates solubility ≥ 1mg/ml) | SS (SS indicates solubility ≥ 1mg/ml) | SS (SS indicates solubility ≥ 1mg/ml) | SS (SS indicates solubility ≥ 1mg/ml) | SS (SS indicates solubility ≥ 1mg/ml) | SS (SS indicates solubility ≥ 1mg/ml) | SS (SS indicates solubility ≥ 1mg/ml) | – | 0.22
